Reference: patent US20260055108A1, “TRIAZINE COMPOUNDS AND USES THEREOF” (HUTCHMED LIMITED, priority 2022, published 2026)
Like-named read-outs stand apart in the source and are kept apart here.

Experiments:
[1] = biological target: Recombinant human Menin protein (2-610) / MLL polypeptide binding (Homo sapiens (Human), UniProt O00255); test: Menin and MLL protein binding at a molecular level (fluorescence polarization method); conditions: inhibition of Menin / MLL polypeptide binding
In short: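 Binding of recombinant human Menin (2-610) to 6-FAM-labelled MLL peptide measured by fluorescence polarization (ex 480/em 535 nm) in Tris/NaCl/TCEP buffer, pH 7.5, 2% DMSO. Compound preincubated with Menin 30 min at room temperature, then peptide added for 30 min in the dark. Tested at 1.000 down to 0.0005 μM final.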

[2] = tested on: MV-4-11 cells (human acute myelogenous leukemia cell line carrying MLL-AF4 mutation); test: Cell proliferation assay, MV-4-11 (CellTiter-Glo); format: cell-based
In short: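 MV-4-11 cells (3000/well, IMDM with 10% HIFBS and 50 μM β-mercaptoethanol) exposed to compound at 1.100–0.001 μM final, 0.1% DMSO, for 3 days at 37°C. Viability read by CellTiter-Glo luminescence on day 0 and day 3, normalised to day-0 and untreated wells.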

[3] = Homo sapiens, MV4-11, 72 h, MV-4-11 cells, 3 days treatment, CellTiter-Glo, read-out: GI50

Recombinant human Menin protein (2-610) / MLL polypeptide binding, sequence (O00255 2-610): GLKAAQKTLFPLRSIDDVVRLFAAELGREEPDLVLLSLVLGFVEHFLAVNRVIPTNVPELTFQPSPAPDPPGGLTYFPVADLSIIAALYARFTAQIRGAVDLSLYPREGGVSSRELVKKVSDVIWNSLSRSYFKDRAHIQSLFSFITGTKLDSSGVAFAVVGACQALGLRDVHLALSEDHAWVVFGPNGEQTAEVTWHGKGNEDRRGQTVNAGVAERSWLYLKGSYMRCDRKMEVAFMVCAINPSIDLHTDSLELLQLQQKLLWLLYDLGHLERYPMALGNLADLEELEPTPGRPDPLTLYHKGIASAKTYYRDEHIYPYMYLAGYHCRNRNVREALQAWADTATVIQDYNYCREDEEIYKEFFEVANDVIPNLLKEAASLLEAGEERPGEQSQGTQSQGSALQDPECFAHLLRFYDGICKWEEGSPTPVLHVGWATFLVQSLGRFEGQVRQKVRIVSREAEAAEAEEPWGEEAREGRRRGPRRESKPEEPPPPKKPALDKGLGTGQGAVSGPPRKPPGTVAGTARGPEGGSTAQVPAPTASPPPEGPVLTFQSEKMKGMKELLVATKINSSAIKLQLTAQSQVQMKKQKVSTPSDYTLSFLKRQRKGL

| IC50 [1] [µM] | GI50 [2, 3] [µM] | GI50 ([2]; MV-4-11 cells, 3 days treatment, CellTiter-Glo, read-out: GI50) [µM] | Structure (SMILES) | GI50 ([2]; Homo sapiens, MV4-11, 72 h) [µM] |
| --- | --- | --- | --- | --- |
| 0.0027 | 0.009 | – | CCN(C(=O)c1cc(F)ccc1Oc1nncnc1N1CC2(CCN(CC3CCN(c4cccc(CO)n4)CC3)CC2)C1)C(C)C [Compound 132, N-ethyl-5-fluoro-2-((5-(7-((1-(6-(hydroxymethyl)pyridin-2-yl)piperidin-4-yl)methyl)-2,7-diazaspiro[3.5]nonan-2-yl)-1,2,4-triazin-6-yl)oxy)-N-isopropylbenzamide] | – |
| 0.102 | 0.409 | – | CCN(C(=O)c1cc(F)ccc1Oc1nncnc1N1CC2(CCN(CC3CCN(Cc4c(C)cc(C)[nH]c4=O)CC3)CC2)C1)C(C)C [Compound 138] | – |
| 0.0437 | 0.048 | – | CCN(C(=O)c1cc(F)ccc1Oc1nnc(NC)nc1N1CC2(CCN(Cc3ccc4c(cc(C#N)n4CCO)c3C)CC2)C1)C(C)C [Compound 156] | – |
| > 1 | > 3.3 | – | CCN(C(=O)c1cc(F)ccc1Oc1nncnc1N1CC2(CCN(Cc3ccc(Cl)nc3)CC2)C1)C(C)C [Compound 59] | – |
| 0.0024 | 0.031 | – | CCN(C(=O)c1cc(F)ccc1Oc1nncnc1N1CC2(CCN(CC3CCN(C(=O)C4CCC4)CC3)CC2)C1)C(C)C [Compound 3] | – |
| 0.0284 | 0.045 | – | CCN(C(=O)c1cc(F)ccc1Oc1nncnc1N1CC2(CCN(CC3CCN(c4ccc5ncnn5c4)CC3)CC2)C1)C(C)C [Compound 56] | – |
| 0.075 | 0.113 | – | CCN(C(=O)c1cc(F)ccc1Oc1nncnc1N1CC2(CCN(CC3CCN(C(=O)c4cnn(C)c4)CC3)CC2)C1)C(C)C [Compound 16] | – |
| 0.0535 | 0.07 | – | CCN(C(=O)c1cc(F)ccc1Oc1nncnc1N1CC2(CCN(CC3CCN(c4ccc(C#N)cn4)CC3)CC2)C1)C1CC1 [Compound 116] | – |
| 0.0033 | 0.009 | – | CCN(C(=S)c1cc(F)ccc1Oc1nncnc1N1CC2(CCN(CC3CCN(c4cc(OC)c(OC)nn4)CC3)CC2)C1)C(C)C [Compound 107] | – |
| 0.03 | 0.059 | – | CCN(C(=O)c1cc(F)ccc1Oc1nncnc1N1CC2(CCN(CC3CCN(c4nnc(OC)cc4OC)CC3)CC2)C1)C(C)C [Compound 96] | – |
| 0.0213 | 0.058 | – | CCN(C(=O)c1cc(F)ccc1Oc1nncnc1N1CC2(CCN(CC3CCN(C(=O)C4COC4)CC3)CC2)C1)C(C)C [Compound 5] | – |
| 0.0109 | 0.022 | – | COc1cc(N2CCC(CN3CCC4(CC3)CN(c3ncnnc3Oc3ccc(F)cc3-c3ccnn3C)C4)CC2)nnc1OC [Compound 92] | – |
| 0.175 | 0.255 | – | N#Cc1ccc(N2CCC(CN3CCC4(CC3)CN(c3ncnnc3Oc3ccc(F)cc3C3=CCOCC3)C4)CC2)nc1 [Compound 117] | – |
| 0.0019 | 0.009 | – | COc1cc(N2CCC(CN3CCC4(CC3)CN(c3ncnnc3Oc3ccc(F)cc3C(=O)N3CCC[C@H]3C)C4)CC2)nnc1OC [Compound 100] | – |
| 0.0146 | 0.027 | – | CCN(C(=O)c1cc(F)ccc1Oc1nncnc1N1CC2(CCN(CC3CCN(c4ccc(C#N)cn4)CC3(C)C)CC2)C1)C(C)C (centres unmarked) [Compound 126] | – |
| 0.879 | 0.932 | – | C[C@H]1CN(C)CCN1C(=O)c1cc(F)ccc1Oc1nncnc1N1CC2(CCN(CC3CCN(c4ccccn4)CC3)CC2)C1 [Compound 76] | – |
| 0.018 | 0.018 | – | CCN(C(=O)c1cc(F)ccc1Oc1nncnc1N1CC2(CCN(Cc3ccc4[nH]c(C#N)c(C5=CCOCC5)c4c3C)CC2)C1)C(C)C [Compound 131, 2-((5-(7-((2-cyano-3-(3,6-dihydro-2H-pyran-4-yl)-4-methyl-1H-indol-5-yl)methyl)-2,7-diazaspiro[3.5]nonan-2-yl)-1,2,4-triazin-6-yl)oxy)-N-ethyl-5-fluoro-N-isopropylbenzamide] | – |
| 0.023 | 0.054 | – | CCN(C(=O)c1cc(F)ccc1Oc1nncnc1N1CC2(CCN(CC3CCN(C(=O)N(C)C)CC3)CC2)C1)C(C)C [Compound 24] | – |
| 0.003 | 0.005 | – | CCN(C(=O)c1cc(F)ccc1Oc1nncnc1N1CC2(CCN(CC3CCN(c4ccccn4)CC3)CC2)C1)C(C)C [Compound 57, N-ethyl-5-fluoro-N-isopropyl-2-((5-(7-((1-(pyridin-2-yl)piperidin-4-yl)methyl)-2,7-diazaspiro[3.5]nonan-2-yl)-1,2,4-triazin-6-yl)oxy)benzamide] | – |
| 0.0185 | 0.024 | – | CCN(C(=O)c1cc(F)ccc1Oc1nncnc1N1CC2(CCN(CC3CCN(c4cnc(C#N)cn4)CC3)CC2)C1)C(C)C [Compound 49] | – |

| IC50 [1] [µM] | GI50 [2, 3] [µM] | GI50 ([2]; MV-4-11 cells, 3 days treatment, CellTiter-Glo, read-out: GI50) [µM] | Structure (SMILES) | GI50 ([2]; Homo sapiens, MV4-11, 72 h) [µM] |
| --- | --- | --- | --- | --- |
| 0.56 | – | 0.155 | CCNC(=O)c1cc(F)ccc1Oc1nncnc1N1CC2(CCN(CC3CCN(c4cc(OC)c(OC)nn4)CC3)CC2)C1 [Compound 179, (Z)-2-((5-(7-((1-(5,6-dimethoxypyridazin-3-yl)piperidin-4-yl)methyl)-2,7-diazaspiro[3.5]nonan-2-yl)-1,2,4-triazin-6-yl)oxy)-N-ethyl-5-fluorobenzimidic acid] | – |
| 0.0061 | 0.023 | – | CCN(C(=O)c1cc(F)ccc1Oc1nncnc1N1CC(C2(N(C)Cc3ccc4[nH]c(C#N)cc4c3C)CC2)C1)C(C)C [Compound 139, 2-((5-(3-(1-(((2-cyano-4-methyl-1H-indol-5-yl)methyl)(methyl)amino)cyclopropyl)azetidin-1-yl)-1,2,4-triazin-6-yl)oxy)-N-ethyl-5-fluoro-N-isopropylbenzamide] | – |
| 0.116 | 1.39 | – | CCN(C(=O)c1cc(F)ccc1Oc1nncnc1N1CC2(CCN(CC3CCN(CC(O)C(N)=O)CC3)CC2)C1)C(C)C (centres unmarked) [Compound 147, 2-((5-(7-((1-(3-amino-2-hydroxy-3-oxopropyl)piperidin-4-yl)methyl)-2,7-diazaspiro[3.5]nonan-2-yl)-1,2,4-triazin-6-yl)oxy)-N-ethyl-5-fluoro-N-isopropylbenzamide] | – |
| 0.0017 | 0.005 | – | CCN(C(=O)c1cc(F)ccc1Oc1nncnc1N1CC2(CCN(CC3CCN(C(=O)NC(C)(C)C)CC3)CC2)C1)C(C)C [Compound 30] | – |
| 0.0009 | 0.007 | – | COc1cc(N2CCC(CN3CCC4(CC3)CN(c3ncnnc3Oc3ccc(F)cc3C(=O)OC(C)C)C4)CC2)nnc1OC [Compound 106] | – |
| > 1 | 0.43 | – | C=CC(=O)N1CCC(c2ccc(CN3CCC4(CC3)CN(c3ncnnc3Oc3ccc(F)cc3C(=O)N(CC)C(C)C)C4)cc2)CC1 [Compound 182] | – |
| 0.0015 | 0.004 | – | [2H]C(c1ccc2[nH]c(C#N)cc2c1C)N1CCC2(CC1)CN(c1ncnnc1Oc1ccc(F)cc1C(=O)N(CC)C(C)C)C2 (centres unmarked) [Compound 175, 2-((5-(7-((2-cyano-4-methyl-1H-indol-5-yl)methyl-d)-2,7-diazaspiro[3.5]nonan-2-yl)-1,2,4-triazin-6-yl)oxy)-N-ethyl-5-fluoro-N-isopropylbenzamide] | – |
| 0.0979 | 0.116 | – | CCN(C(=O)c1cc(F)ccc1Oc1nncnc1N1CC2(CCN(CC3CCN(C(=O)C(F)(F)F)CC3)CC2)C1)C(C)C [Compound 21] | – |
| 0.0159 | 0.028 | – | COc1cc(N2CCC(CN3CCC4(CC3)CN(c3ncnnc3Oc3ccc(F)cc3)C4)CC2)nnc1OC [Compound 102] | – |
| 0.0012 | 0.003 | – | CCN(C(=O)c1cc(F)ccc1Oc1nncnc1N1CC2(CCN(Cc3ccc4[nH]c(C#N)cc4c3C)CC2)C1)C(C)C [Compound 66] | – |
| 0.0243 | 0.242 | – | CCN(C(=O)c1cc(F)ccc1Oc1nncnc1N1CC(C2(NCc3ccc4[nH]c(C#N)cc4c3C)CC2)C1)C(C)C [Compound 127] | – |
| 0.0066 | 0.016 | – | CCN(C(=O)c1cc(F)ccc1Oc1nncnc1N1CC2(CCN(CC3CCN(c4nc(C#N)co4)CC3)CC2)C1)C(C)C [Compound 80] | – |
| 0.114 | 0.23 | – | CCN(C(=O)c1cc(F)ccc1Oc1nncnc1N1CC2(CCN(Cc3c(C)cc(C)[nH]c3=O)CC2)C1)C(C)C [Compound 58] | – |
| 0.0372 | 0.156 | – | CCN(C(=O)c1cc(F)ccc1Oc1nncnc1N1CC2(CCN(CC3CCN(c4ccc(N)nn4)CC3)CC2)C1)C(C)C [Compound 87] | – |
| 0.417 | 0.176 | – | CCN(C(=O)c1cc(F)ccc1Oc1nncnc1N1CC2(CCN(Cc3ccc4oc(C(=O)NC)cc4c3)CC2)C1)C(C)C [Compound 74] | – |
| 0.0053 | 0.013 | – | CCN(C(=O)c1cc(F)ccc1Oc1nncnc1N1CC2(CCN(CC3CCN(c4ccncn4)CC3)CC2)C1)C(C)C [Compound 165, N-ethyl-5-fluoro-N-isopropyl-2-((5-(7-((1-(pyrimidin-4-yl)piperidin-4-yl)methyl)-2,7-diazaspiro[3.5]nonan-2-yl)-1,2,4-triazin-6-yl)oxy)benzamide] | – |
| 0.0009 | 0.002 | – | CCN(C(=O)c1cc(F)ccc1Oc1nncnc1N1CC2(CCN(CC3CCN(c4ccc(C)nn4)CC3)CC2)C1)C(C)C [Compound 84] | – |
| 0.0009 | 0.001 | – | CCN(C(=O)c1cc(F)ccc1Oc1nncnc1N1CC2(CCN(CC3CCN(c4cc(C)c(OC)nn4)CC3)CC2)C1)C(C)C [Compound 97] | – |
| 0.0255 | 0.007 | – | C=CC(=O)Nc1cccc(N2CC3(CCC(CN4CCC5(CC4)CN(c4ncnnc4Oc4ccc(F)cc4C(=O)N(CC)C(C)C)C5)CC3)C2)c1 [Compound 181] | – |

| Structure (SMILES) | IC50 [1] [µM] | GI50 [2, 3] [µM] | GI50 ([2]; MV-4-11 cells, 3 days treatment, CellTiter-Glo, read-out: GI50) [µM] | GI50 ([2]; Homo sapiens, MV4-11, 72 h) [µM] |
| --- | --- | --- | --- | --- |
| CCN(C(=O)c1cc(F)ccc1Oc1nncnc1N1CC2(CCN(CC3CCN(C(=O)OC)CC3)CC2)C1)C(C)C [Compound 170, methyl 4-((2-(6-(2-(ethyl(isopropyl)carbamoyl)-4-fluorophenoxy)-1,2,4-triazin-5-yl)-2,7-diazaspiro[3.5]nonan-7-yl)methyl)piperidine-1-carboxylate] | 0.0344 | – | – | 0.049 |
